Test results published in patent US20120264799A1, “INDANE-AMINE DERIVATIVES, THEIR PREPARATION AND USE AS MEDICAMENTS” (LABORATORIOS DEL DR. ESTEVE ,S.A., priority 2009, published 2012).
pKi: −log10 of the molar value.

Biological target: T1, Cloned Human Serotonin Receptor, Subtype 7 (h5HT7) (Homo sapiens, UniProt P34969)
T1 construct: purchased PerkinElmer 6120512; host or cells: CHO cells
Assay: Radioligand binding assay, [125I]LSD, Flashplate
Conditions: h5HT7 expressed in CHO cells; radioligand [125I]LSD 0.82 nM; 240 min at room temperature; read-out: 5-HT7 Ki
Description: Radioligand binding assays were performed using the Cloned Human Serotonin Receptor, Subtype 7 (h5HT7), expressed in CHO cells, coated on Flashplate (Basic FlashPlate Cat.: SMP200) from PerkinElmer (Cat.: 6120512). The protocol assay was essentially the recommended protocol in the Technical Data Sheet by PerkinEmer Life and Analytical Sciences. The Mass membrane protein/well was typically […] and the Receptor/well was about 9-10 fmoles. The Flashplate were let equilibrate at room temperature for one hour before the addition of the components of the assay mixture. The binding buffer was: 50 mM Tris-HCl, pH 7.4, containing 10 mM MgCl2, 0.5 mM EDTA and 0.5% BSA. The radioligand was [^125l]LSD at a final concentration of 0.82 nM. Nonspecific binding was determined with 50 µM of Clozapine. The assay volume was […]. […] The radioactivity were quantified by liquid scintillation spectrophotometry (Wallac 1450 Microbeta Trilux) with a count delay of 4 minutes prior to counting and a counting time of 30 seconds per well. Competition binding data were analyzed by using the LIGAND program (Munson and Rodbard, LIGAND: A versatile, computerized approach for characterization of ligandbinding systems. Anal. Biochem. 107: 220-239, 1980) and assays were performed in triplicate determinations for each point.

T1 sequence (P34969 whole entry): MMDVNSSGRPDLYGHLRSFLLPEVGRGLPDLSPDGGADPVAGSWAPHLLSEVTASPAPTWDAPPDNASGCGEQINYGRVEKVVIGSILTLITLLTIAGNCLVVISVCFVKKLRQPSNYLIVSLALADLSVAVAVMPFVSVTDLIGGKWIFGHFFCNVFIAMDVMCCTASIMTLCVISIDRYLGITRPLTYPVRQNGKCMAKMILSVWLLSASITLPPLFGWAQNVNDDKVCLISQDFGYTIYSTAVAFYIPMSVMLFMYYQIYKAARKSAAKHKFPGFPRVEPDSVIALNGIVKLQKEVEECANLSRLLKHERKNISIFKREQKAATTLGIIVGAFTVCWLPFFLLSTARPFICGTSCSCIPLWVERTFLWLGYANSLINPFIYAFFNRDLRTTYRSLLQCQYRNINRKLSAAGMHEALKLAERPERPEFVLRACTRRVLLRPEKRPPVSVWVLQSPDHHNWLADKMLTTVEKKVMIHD

pKi | SMILES
6.37 | Cc1nn(C)c(-c2ccc3c(c2)C(N(C)C)CC3)c1C (centres unmarked) [Example 3, N,N-dimethyl-6-(1,3,4-trimethyl-1H-pyrazol-5-yl)-2,3-dihydro-1H-inden-1-amine]
6.44 | Cc1nn(C(C)C)c(-c2ccc3c(c2)C(N(C)C)CC3)c1C (centres unmarked) [Example 9, 6-(1-lsopropyl-3,4-dimethyl-1H-pyrazol-5-yl)-N,N-dimethyl-2,3-dihydro-1H-inden-1-amine]
